Columns and labels:
[1] = tested on: H2228 lung cancer cell line; assay: High-throughput screening, CellTiter-Glo cell viability assay at 100 nM; assay type: cell-based, human; conditions: Homo sapiens, NCI-H2228, HTS, compounds at 100 nM, 72 h, read-out: cytotoxicity expressed in IC50, H2228 (results of High throughput screening)
[2] = tested on: EBC-1 lung cancer cell line; assay: as above; assay type: cell-based, human; conditions: Homo sapiens, EBC-1, HTS, compounds at 100 nM, 72 h, read-out: cytotoxicity expressed in IC50, EBC-1 (results of High throughput screening)
[3] = tested on: COLO-205 (human colorectal adenocarcinoma) cells; assay: Colorimetric alamarBlue assay, long treatment; conditions: COLO 205, 72 h, read-out: cytotoxicity expressed in IC50, COLO-205
[4] = tested on: U-87 (human primary glioblastoma) cells; assay: Short term cytotoxicity, MTT assay; assay type: cell-based; conditions: 1 h treatment then 72 h culture, read-out: cytotoxicity expressed in IC50, U-87
Method: (§1) For the short term cytotoxicity studies the A-431 (human squamous carcinoma) and U-87 (human primary glioblastoma) cells were cultured in RPMI-1640 medium supplemented with 10% FCS (fetal calf serum, Sigma Ltd.), 2 mM L-glutamine, and […] gentamicin. Cell cultures were maintained at 37° C. in a humidified atmosphere with 5% CO2. The cells were grown to confluency and were distributed into 96-well plate with initial cell number of 5.0×10^3 per well. After 24 h incubation at 37° C., the cells were treated with the compounds in 200 μL final volume containing 1.0 v/v % DMSO. The cells were incubated with the compounds at 10^−4-10^2 μM concentration range for 1 h. Control cells were treated with serum free medium (RPMI-1640) only or with DMSO (c=1.0 v/v %) at 37° C. for 1 h. After incubation the cells were washed twice with serum free (RPMI-1640) medium. To determine the in vitro cytostatic effect, the cells were cultured for a further 72 h in 10% serum containing medium. MTT-solution ([…], 2 mg/mL, final concentration: 0.37 mg/mL) was added to each well. The respiratory chain [26, 27] and other electron transport systems reduce MTT and thereby form non-water-soluble violet formazane crystals within the cell. […] After 4 h of incubation the cells were centrifuged for 5 min (900 g) and the supernatant was removed. The obtained formazane crystals were dissolved in DMSO ([…]) and optical density (OD) of the samples was measured at λ=540 and 620 nm, respectively, using ELISA Reader (iEMS Reader, Labsystems, Finland). OD620 values were subtracted from OD540 values. The percent of cytostasis was calculated by using the following equation: Cytostatic effect (%)=[1−(ODtreated/ODcontrol)]×100 Values ODtreated and ODcontrol correspond to the optical densities of the treated and the control cells, respectively. In each case two independent experiments were carried out with 4 parallel measurements. […] The curves were defined using Microcal™ Origin1 (version 7.5) software: cytostasis was plotted as a function of concentration, fitted to a sigmoidal curve, and based on this curve, the half maximal inhibitory concentration (IC50) value was determined.

[5] = tested on: A-431 (human squamous carcinoma) cells; assay: Short term cytotoxicity, MTT assay; assay type: cell-based; conditions: 1 h treatment then 72 h culture, read-out: cytotoxicity expressed in IC50, A-431
Method: as §1

[6] = tested on: A2058 (human metastatic melanoma) cells; assay: Colorimetric alamarBlue assay, long treatment; conditions: Homo sapiens, A2058, 72 h, read-out: cytotoxicity expressed in IC50, A-2058
[7] = tested on: PANC-1 (human pancreatic carcinoma) cells; assay: Impedance-based viability assay (xCELLigence SP), long treatment; assay type: cell-based; conditions: 72 h, read-out: cytotoxicity expressed in IC50, PANC-1
Source text: (Gibco®/Invitrogen Corporation, New York, NY, USA).
Data obtained from each experiment represent mathematical averages.

[8] = tested on: representative cell lines; assay: Cytotoxicity on representative cell lines (summary statement); assay type: cell-based; conditions: Homo sapiens; summary range, ca.
[9] = tested on: PC3 human prostate cancer cell line; assay: CellTiter-Glo IC50 (Example 19); assay type: cell-based; conditions: 72 h
Method: (§2) Some representative imipridones and ONC212 as reference were further tested on the following human malignant cell lines: PC3 and LNCap (prostate carcinoma); BxPC3, MiaPaCa2 and Panc1 (pancreatic cancer); A549, HCC827, H1993 and H520 (lung carcinoma); MDA-MB-453 and MDA-MB-231 (breast cancer) (see Table 2 and FIGS. 1-11).
(§3) Cell lines were maintained according to the instructions provided by ATCC (https://www.lgcstandards-atcc.org/) in a 5% CO2 humidified incubator maintained at 37° C. temperature. Effects of compounds on cell viability were measured via CellTiter-Glo® luminescent cell viability assay (Promega, Madison, WI, USA) Cells were plated at 1000 cells/well onto a flat-bottomed, white 96 well plate (BRANDplates, cat. no.: 781965). […] After the treatment, medium was removed and CellTiter-Glo® reagent was added. The luminescence signal was recorded using a microplate reader (BioTek Synergy 2 Multi-Mode Reader, BioTek, Winooski, VT, USA).
(§4) Cell viability data (% of untreated control cells) was evaluated with Microsoft Excel. Dose-response curves (using a non-linear regression model, log (inhibitor) vs response, variable slope) were generated and IC50 values were determined using Graph Pad Prism 5.02 software (GraphPad Software, San Diego, CA, USA).

[10] = tested on: LNCap human prostate cancer cell line; assay: CellTiter-Glo IC50 (Example 19); assay type: cell-based; conditions: 72 h
Method: as §2, §3, §4

[11] = tested on: Panc1 pancreatic cancer cell line; assay: CellTiter-Glo IC50 (Example 19); assay type: cell-based; conditions: Homo sapiens, PANC-1, 72 h
Method: as §2, §3, §4

[12] = tested on: HCC827 lung carcinoma cell line; assay: CellTiter-Glo IC50 (Example 19); assay type: cell-based; conditions: Homo sapiens, 72 h
Method: as §2, §3, §4

[13] = tested on: MiaPaCa2 pancreatic cancer cell line; assay: CellTiter-Glo IC50 (Example 19); assay type: cell-based; conditions: Homo sapiens, MIA PaCa-2, 72 h
Method: as §2, §3, §4

[14] = tested on: A549 lung carcinoma cell line; assay: CellTiter-Glo IC50 (Example 19); assay type: cell-based; conditions: Homo sapiens, 72 h
Method: as §2, §3, §4

[15] = tested on: H1993 lung carcinoma cell line; assay: CellTiter-Glo IC50 (Example 19); assay type: cell-based; conditions: Homo sapiens, NCI-H1993, 72 h
Method: as §2, §3, §4

[16] = tested on: H520 lung carcinoma cell line; assay: CellTiter-Glo IC50 (Example 19); assay type: cell-based; conditions: Homo sapiens, NCI-H520, 72 h
Method: as §2, §3, §4

[17] = tested on: BxPC3 pancreatic cancer cell line; assay: CellTiter-Glo IC50 (Example 19); assay type: cell-based; conditions: Homo sapiens, BXPC-3, 72 h
Method: as §2, §3, §4

[18] = tested on: H2228 cell line; assay: Additional in vitro IC50 tests (Table 3); assay type: cell-based; conditions: Homo sapiens, NCI-H2228
Method: as §3, §4

[19] = tested on: SCC-25 cell line; assay: Additional in vitro IC50 tests (Table 3); assay type: cell-based; conditions: Homo sapiens
Method: as §3, §4

[20] = tested on: EBC-1 cell line; assay: Additional in vitro IC50 tests (Table 3); assay type: cell-based; conditions: Homo sapiens
Method: as §3, §4

[21] = tested on: Detroit 562 cell line; assay: Additional in vitro IC50 tests (Table 3); assay type: cell-based; conditions: Homo sapiens
Method: as §3, §4

[22] = tested on: Fadu cell line; assay: Additional in vitro IC50 tests (Table 3); assay type: cell-based; conditions: Homo sapiens
Method: as §3, §4

[23] = tested on: MDA-MB-453 breast cancer cell line; assay: CellTiter-Glo IC50 (Table 3); assay type: cell-based; conditions: Homo sapiens
Method: as §2, §3, §4

[24] = tested on: MDA-MB-231 breast cancer cell line; assay: CellTiter-Glo IC50 (Table 3); assay type: cell-based; conditions: Homo sapiens
Method: as §2, §3, §4

Compound	IC50 [1] [nM]	IC50 [2] [nM]	IC50 [3] [nM]	IC50 [4] [nM]	IC50 [5] [nM]	IC50 [6] [nM]	IC50 [7] [nM]	other results
O=C1C2=C(CCN(Cc3ccccc3)C2)N2CCN=C2N1Cc1cccc(F)c1 [I/8]	> 100	> 100	4960	> 25000	7290	1730	1420	
O=C1C2=C(CCN(Cc3ccccc3F)C2)N2CCN=C2N1Cc1ccc(C(F)(F)F)c(F)c1 [I/26]	> 100	> 100	> 10000	3510	3630	> 10000	920	
O=C1C2=C(CCN(Cc3ccc(C(F)(F)F)cc3)C2)N2CCN=C2N1Cc1ccc(C(F)(F)F)c(F)c1 [I/27]	> 100	> 100	25000	5990	8950	12800	25000	
O=C1C2=C(CCN(Cc3ccccc3)C2)N2CCN=C2N1Cc1ccc(F)cc1 [I/5]	> 100	> 100	247	> 25000	3550	250	250	
NCc1cccc(CN2C(=O)C3=C(CCN(Cc4cccc(F)c4)C3)N3CCN=C23)c1 [I/60]	> 100	> 100	> 10000	416	< 200	> 10000	430	
O=C1C2=C(CCN(Cc3cccc(F)c3)C2)N2CCN=C2N1Cc1ccc(I)cc1 [I/46]	~100	< 100		25000	6160	> 10000	25	
O=C1C2=C(CCN(Cc3cccc(F)c3)C2)N2CCN=C2N1Cc1ccc(C(F)(F)F)c(F)c1 [I/31]	< 100	< 100		> 25000	< 200		76.7	
O=C1C2=C(CCN(Cc3ccccc3)C2)N2CCN=C2N1Cc1cc(F)c(F)c(F)c1 [I/9]			> 10000	6020	1390	> 10000	2220	
O=C1C2=C(CCN(Cc3ccc(F)cc3)C2)N2CCN=C2N1Cc1ccc(C(F)(F)F)c(F)c1 [I/28]	> 100	> 100	3270	17600	2660	> 10000	960	
O=C1C2=C(CCN(Cc3cc(F)cc(F)c3)C2)N2CCN=C2N1Cc1ccc(Br)cc1 [I/39, 4-(4-Bromobenzyl)-7-(3,5-difluorobenzyl)-2,4,6,7,8,9-hexahydroimidazo[1,2-a]pyrido[3,4-e]pyrimidin-5(1H)-one]	< 100	< 100					3	IC50 [8]: 3 to 8 nM; IC50 [9]: 2 nM; IC50 [10]: 2 nM; IC50 [11]: 4 nM; IC50 [12]: 4 nM; IC50 [13]: 4 nM; IC50 [14]: 4 nM; IC50 [15]: 3 nM; IC50 [16]: 3 nM; IC50 [17]: 3 nM; melting point: 173.5 °C; IC50 [18]: 6 nM; IC50 [19]: 7 nM; IC50 [20]: 4 nM; IC50 [21]: 3 nM; IC50 [22]: 5 nM; IC50 [23]: < 1 nM; IC50 [24]: < 1 nM
